Results reported in patent publication US6395717B1, “Therapeutic drug for endotoxin blood symptom and multi-organ failure induced thereby” (priority 1995, dated 2002).

Key:
[1] = test system: endotoxin-shock; assay: Effect of sialic acid in reduction of endotoxin-shock (survival 24 hours after endotoxin); assay type: in vivo, SMA-strain male mice; settings: living mice 24 hours later
Description: Tests were conducted with respect to endotoxin-sensitive, SMA-strain male mice (20 to 30 g) used: (1) sixteen control mice, (2) eight mice each administrated with sialic acid and (3) six mice each administrated with a polymer of sialic acid. (1) With respect to the control mice, 0.1 ml/10 g of physiological saline was peritoneally administrated 30 minutes before the administration of an endotoxin. (2) With respect to the mice administrated with sialic acid, a solution in which 100 mg of sialic acid was dissolved in 10 ml of physiological saline or a ten-times diluted solution thereof was peritoneally administrated to the mouse at a rate of 0.1 ml/10 g of the mouse (Dosage: 100 mg/Kg, 10 mg/Kg). (3) With respect to the mice administrated with the sialic acid polymer, a solution in which 100 mg of a dimer or a trimmer of sialic acid was dissolved in 10 ml of physiological saline or a ten-times was peritoneally administrated to the mouse at a rate of 0.1 ml/10 g (Dosage: 100 mg/Kg). Thirty minutes after the administration, a physiological saline solution of endotoxin (10 mg/ml) was peritoneally administrated to the mouse at a rate of […] (administrated amount: 100 mg/Kg). Then, the number of living mice 24 hours later was checked. […]

[2] = test system: renal failure induced by endotoxin; assay: Effect upon renal failure induced by endotoxin (kidney clearance of inulin and paraaminohippuric acid); assay type: in vivo, Whister-strain rats; settings: 10 mg/Kg intravenous
Description: Into each of ten Whister-strain rats (8 to 9 week age) having undergone cannulation at the carotid canal and the bladder was intraveneously drip-infused a 4% manitol solution containing inulin (5 mg/ml) and paraaminohippuric acid (2.5 mg/ml) at a rate of 0.1144 ml/min. Thirty minutes thereafter, a physiological saline solution of sialic acid ([…]) was administered, at a rate of 0.2 ml/100 g (dosage: 10 mg/Kg), to each of the rats administered with sialic acid, whereas the same amount of physiological saline was rapidly interveneously injected to the control rats. Another thirty minutes thereafter, a physiological saline solution of endotoxin was interaveneously injected to the rats (dosage: 0.25 mg/Kg). Then, blood and urine were sampled over 90 minutes, and the concentrations of inulin and paraaminohippuric acid were measured. A kidney clearance was calculated according to the following formula. Urine was collected at an interval of 15 minutes after the administration of sialic acid or physiological saline (in FIG. 2, −15 to 0 minutes, 0 to 15 minutes, 15 to 30 minutes, 30 to 45 minutes and 45 to 60 minutes), and blood was sampled at a middle point of a time period during urine-collecting. The clearance values are shown at such middle points for the respective fractions.
Kidney clearance=Amount of the drug recovered in urine collected in the collecting time period÷Concentration of the drug in plasma at the middle point
The concentration of inulin was measured by the Dishe & Borefreund's method (Z. Dishe and E. Borefreund, J. Biol. Chem., 192, 583-587 (1951)), and the concentration of paraaminohippuric acid was measured by the Marshall's method (E. K. Marshall, J. Biol. Chem., 122, 263-273 (1937)).
Results of the ratio in the filtering speed through glomerulus are shown in FIG. 2, and results of the ratio in renal plasma flow are in FIG. 3. In both the figures, the ordinate means the ratio in the filtering speed through glomerulus or the ratio in the renal plasma flow for 30 minutes between the intraveneous dip infusion of inulin and paraaminohippuric acid and the intraveneous injection of sialic acid or physiological saline.

[3] = endotoxin 0.25 mg/Kg iv 30 minutes later, 30 minutes after endotoxin administration

CC(=O)N[C@H]1[C@H]([C@H](O)[C@H](O)CO)OC(O)(C(=O)O)C[C@@H]1O (stereo partly drawn) [sialic acid, N-acetylneuraminic acid]
survival rate ([1]; 10 mg/Kg peritoneally 30 minutes before endotoxin 100 mg/Kg peritoneally, n=8): 50% | survival rate ([1]; 100 mg/Kg peritoneally 30 minutes before endotoxin 100 mg/Kg peritoneally): 87.5% | influence on the ratio in the filtering speed through glomerulus and the ratio in the renal plasma flow, sialic acid alone ([2]; before endotoxin administration): no influence was observed | decrease of the ratio in the filtering speed through glomerulus [2, 3]: 30% | decrease of the ratio in the renal plasma flow [2, 3]: 20% | reduction in both the ratio in the filtering speed through glomerulus and the ratio in the renal plasma flow due to endotoxin ([2]; risk degree of 5% versus control rats): significantly prevented
